pIC50: −log10 of the molar value. Some results are limits rather than exact numbers.

Data set [1] can be described thus: Parallel Artificial Membrane Permeation Assay. To be noted: for PAMPA permeability, in words: PAMPA values close or equal to 0; for Papp at 18 h: pH 7.4.
The target of data set [2] is JAK2 JH2 WT (Homo sapiens, UniProt O60674). In kind it is binding.
For data set [3], the system named is HEL cells (containing the JAK2 V617F mutant). The data set can be described thus: STAT5 phosphorylation in HEL cells, Western blot. To be noted: for concentration up to which no inhibition of STAT5 phosphorylation was observed: 11: 1-hour incubation. It counts as cell-based, Human. (In general: In western blotting, separated proteins are transferred to a membrane and probed.)

Data set [4] has as its system TF-1 cells (containing wild-type JAK2). The data set can be described thus: STAT5 phosphorylation in TF-1 cells, Western blot. It counts as cell-based, Human. To be noted: 1 hour.
The subject of data set [5] is TF-1 cells starved of cytokine (WT JAK2). The data set can be described thus: Stimulation of STAT5 phosphorylation in TF-1 cells starved of cytokine. It counts as cell-based, Human. Particulars: 0.1, 0.5, and 2 μM.

Sequence of JAK2 JH2 WT (O60674 536-812): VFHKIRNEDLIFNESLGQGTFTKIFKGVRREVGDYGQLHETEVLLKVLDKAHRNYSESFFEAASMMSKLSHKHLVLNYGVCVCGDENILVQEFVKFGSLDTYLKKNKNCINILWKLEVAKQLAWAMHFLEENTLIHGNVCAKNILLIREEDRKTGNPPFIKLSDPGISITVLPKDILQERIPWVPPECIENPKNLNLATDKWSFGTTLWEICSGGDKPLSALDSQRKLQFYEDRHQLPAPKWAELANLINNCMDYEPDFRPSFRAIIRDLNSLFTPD

On to `Nc1nc(Nc2ccc(S(N)(=O)=O)cc2)nn1C(=O)Nc1ccc(-c2cccc(C(=O)O)c2)cc1` [Compound 7, 4’-(5-amino-3-((4-sulfamoylphenyl)amino)-1H-1,2,4-triazole-1-carboxamido)-[1,1’-biphenyl]-3-carboxylic acid], for which, in data set [1], the “PAMPA permeability, in words” value was “essentially impermeable”.
As for `Nc1nc(Nc2ccc(S(N)(=O)=O)cc2)nn1C(=O)Nc1ccc(-c2cccc(C(=O)O)n2)cc1` [Compound 3, 6-(4-(5-amino-3-((4-sulfamoylphenyl)amino)-1H-1,2,4-triazole-1-carboxamido)phenyl)picolinic acid], in data set [2] (JAK2 JH2), the “loss in binding affinity compared to 2” value is reported as 3 fold.
With `Nc1nc(Nc2ccc(S(N)(=O)=O)cc2)nn1C(=O)Nc1ccc(-c2cc(OCc3ccccc3)cc(C(=O)O)c2)cc1` [Compound 12, 4’-(5-amino-3-((4-sulfamoylphenyl)amino)-1H-1,2,4-triazole-1-carboxamido)-5-(benzyloxy)-[1,1’-biphenyl]-3-carboxylic acid], the “weaker binder than 11” value in data set [2] (WT JAK2 JH2) is reported as 2 fold. Also, the “concentration up to which no inhibition of STAT5 phosphorylation was observed” value (“concentration up to which no inhibition” below) in data set [3] (HEL cells, Western blot) is more than 25 µM. Also, the “increase in permeability compared to its isomer 11” value in data set [1] (PAMPA) came to 3 fold.
Regarding `Nc1nc(Nc2ccc(S(N)(=O)=O)cc2)nn1C(=O)Nc1ccc(-c2ccccc2)cc1` [Compound 9, N-([1,1’-biphenyl]-4-yl)-5-amino-3-((4-sulfamoylphenyl)amino)-1H-1,2,4-triazole-1-carboxamide], the “loss in binding affinity compared to 7” value in data set [2] (JAK2 JH2) is listed as “about 3 orders of magnitude”. Besides, in data set [1], the “PAMPA permeability, in words” value was “essentially impermeable”.
The Papp is the rate of passage across a membrane or cell layer, normalised by area and donor concentration. The low end stands for poor permeation, the high end for ready permeation. `Cn1c(=O)c2[nH]cnc2n(C)c1=O.O` [theophylline, reference compound]: the Papp at 18 h in data set [1] (PAMPA) fell in the range of 0.27 to 0.33 ×10⁻⁶ cm/s.
The term pIC50 denotes the negative decadic logarithm of the IC50, by convention in mol/L. Regarding `Nc1nc(Nc2ccc(S(N)(=O)=O)cc2)nn1C(=O)c1c(F)cccc1F` [Compound 1, JNJ7706621, reference compound], in data set [3] (Homo sapiens, HEL, read-out: IC50 (inhibition of STAT-5 phosphorylation)), the pIC50 is 5.30 to 6.00.
Take `Nc1nc(Nc2ccc(S(N)(=O)=O)cc2)nn1C(=O)Nc1ccc(-c2ccc(OCc3ccccc3)c(C(=O)O)c2)cc1` [Compound 11, 4’-(5-amino-3-((4-sulfamoylphenyl)amino)-1H-1,2,4-triazole-1-carboxamido)-4-(benzyloxy)-[1,1’-biphenyl]-3-carboxylic acid]: in data set [3] (HEL cells, Western blot), the “concentration up to which no inhibition” value is more than 40 µM.
`CNC(=O)c1ccc(Nc2nc(N)n(C(=O)Nc3ccc(-c4cc(OCc5ccccc5)cc(C(=O)O)c4)cc3)n2)cc1` [Compound 14, 4’-(5-amino-3-((4-(methylcarbamoyl)phenyl)amino)-1H-1,2,4-triazole-1-carboxamido)-5-(benzyloxy)-[1,1’-biphenyl]-3-carboxylic acid]: the “improved binding affinity compared to 12” value in data set [2] (WT JAK2 JH2) is recorded as 2 fold. The “concentration up to which no inhibition” value in data set [3] (HEL cells, Western blot) was more than 30 µM.
Take `O=C(N[C@H](CO)[C@H](O)c1ccc([N+](=O)[O-])cc1)C(Cl)Cl` [chloramphenicol, reference compound]: the Papp at 18 h in data set [1] (PAMPA) fell in the range of 4.36 to 4.99 ×10⁻⁶ cm/s.
With `CNC(=O)c1ccc(Nc2nc(N)n(C(=O)Nc3ccc(-c4ccc(OCc5ccccc5)c(C(=O)O)c4)cc3)n2)cc1` [Compound 13, 4’-(5-amino-3-((4-(methylcarbamoyl)phenyl)amino)-1H-1,2,4-triazole-1-carboxamido)-4-(benzyloxy)-[1,1’-biphenyl]-3-carboxylic acid], in data set [2], the “stronger binding for WT JH2 than 2” value was 10 fold. Further, the “inhibition of STAT-5 phosphorylation” value is recorded as “complete inhibition” in data set [3] (HEL cells, 20 μM, Western blot) and “complete inhibition” in data set [4] (20 μM, Western blot). Also, the “concentration range in which inhibition of STAT5 phosphorylation was observed” value in data set [3] (HEL cells, tested at 2-30 μM, 1 hour) was in the range of 10 to 20 µM; in data set [4] (tested at 2-30 μM), 10 to 20 µM. For the same compound, the “stimulation of STAT5 phosphorylation” value in data set [5] is reported as “no stimulation of STAT5 phosphorylation was observed”. For the same compound, the “reduced permeability (compared to 11)” value in data set [1] (PAMPA) was approximately 2 fold.
Regarding `COC(=O)c1cccc(-c2ccc(NC(=O)n3nc(Nc4ccc(S(N)(=O)=O)cc4)nc3N)cc2)c1` [Compound 8, Methyl 4’-(5-amino-3-((4-sulfamoylphenyl)amino)-1H-1,2,4-triazole-1-carboxamido)-[1,1’-biphenyl]-3-carboxylate], in data set [2] (JAK2 JH2), the “loss in binding affinity compared to 7” value is listed as “about 3 orders of magnitude”. Moreover, in data set [1], the “PAMPA permeability, in words” value is “essentially impermeable”.

These data come from PMC9939005 (Journal of medicinal chemistry, 2022).
